Test results as given in US20230173082A1, “ANTIBACTERIAL PRODUCTS” (UNIVERSITY OF LINCOLN, priority 2014, published 2023).
Values joined by “and” are separate entries in the source; they are usually repeats but may differ in a detail not shown here. Equal values may be shown once. Read-outs that look alike come from different tables or passages of the source.

Columns and labels:
[1] = system: mammalian cells
[2] = system: P. Aeruginosa 27853; test: MIC testing (MIC/MBC), broth dilution; type: cell-based; details: runs A, B, C, delivery agents with Moenomycin A at 1:2 ratio; for MIC: 24 hours at 37° C.
Experimental: (§1) • The bacteria were grown in 5 ml of Mueller Hinton Broth overnight at 37° C. • The inhibitor was tested on its own or in conjunction with a cell penetrating peptide (CPP). • When tested with a CPP they were incubated together at room temperature for 1 hour before use. • Delivery agents (Compound 5, Compound 6, and 7) were used at a 1:2 ratio.

[3] = system: K. Pneumonia 700603; test: MIC testing (MIC/MBC), broth dilution; type: cell-based; details: runs A, B, C, delivery agents with Moenomycin A at 1:2 ratio; for MIC: 24 hours at 37° C.
Experimental: as §1

[4] = system: A. Baumannii 19606; test: MIC testing (MIC/MBC), broth dilution; type: cell-based; details: runs A, B, C, delivery agents with Moenomycin A at 1:2 ratio; for MIC: 24 hours at 37° C.
Experimental: as §1

[5] = system: HeLa cells; test: In vitro toxicity testing in HeLa cells; type: cell-based
[6] = system: B. Subtilis 2410; test: MIC testing (MIC/MBC), broth dilution; type: cell-based; details: delivery agents with Moenomycin A at 1:2 ratio
Experimental: as §1

[7] = system: E. Coli 25922; test: MIC testing (MIC/MBC), broth dilution; type: cell-based; details: delivery agents with Moenomycin A at 1:2 ratio
Experimental: as §1

[8] = system: tumor cell line 786-O; test: In vitro cell viability in tumor cell line 786-O; type: cell-based; details: initial in vitro testing
[9] = system: mammalian cells; test: Mammalian cytotoxicity (cell type not stated)
[10] = Pseudomonas aeruginosa, read-out: MIC
[11] = Pseudomonas aeruginosa, read-out: MBC
[12] = Bacillus subtilis, read-out: MBC
[13] = Bacillus subtilis, read-out: MIC
[14] = Escherichia coli, read-out: MIC
[15] = Acinetobacter baumannii, read-out: MIC
[16] = Escherichia coli, read-out: MBC

Compound | MIC [2] | MBC [2] | MIC [3] | MBC [3] | MIC [4] | MBC [4] | MIC [2, 10] [µg/mL] | MBC [2, 11] [µg/mL] | MBC [6, 12] [µg/mL] | MIC [6, 13] [µg/mL] | MIC [7, 14] [µg/mL] | MIC [4, 15] [µg/mL] | MBC [7, 16] [µg/mL] | other results
C#CC(=O)N[C@@H](CCCNC(=N)N)C(=O)N[C@@H](CCCNC(=N)N)C(=O)N[C@@H](CCCNC(=N)N)C(=O)N[C@@H](CCCNC(=N)N)C(=O)N[C@@H](CCCNC(=N)N)C(=O)N[C@@H](CCCNC(=N)N)C(=O)N[C@@H](CCCNC(=N)N)C(=O)N[C@@H](CCCNC(=N)N)C(N)=O [Compound 8] | – | – | – | – | – | – | – | – | – | – | – | – | – | concentration up to which no toxicity was observed [1]: up to 110 µg/mL
N=C(N)NCCNC(=O)CCN(CCC(=O)NCCNC(=N)N)CCN(CCC(=O)NCCNC(=N)N)CCC(=O)NCCNC(=N)N [Compound 7, 3,3’,3”,3”’-(Ethane-1,2-Divlbis(Azanetrivl)) Tetrakis(N-(2-Guanidinoethyl)Propanamide)] | Growth in all wells | Growth in all wells | Growth in all wells | Growth in all wells | Growth in all wells | Growth in all wells | – | – | – | – | – | – | – | –
CCCCCCCCCCCCCCCCCC(=O)OC(COC(COCC(COC(=O)NCCCN(C)CCCN)OC(=O)NCCCN(C)CCCN)COCC(COC(=O)NCCCN(C)CCCN)OC(=O)NCCCN(C)CCCN)COC(COCC(COC(=O)NCCCN(C)CCCN)OC(=O)NCCCN(C)CCCN)COCC(COC(=O)NCCCN(C)CCCN)OC(=O)NCCCN(C)CCCN (centres unmarked) [Compound 6] | – | – | – | – | – | – | 256 | 256 | 32 | 32 | 256 | 256 | – | concentration at which toxic [5]: 20000 ng/mL; MBC ([4]; Acinetobacter baumannii, read-out: MBC): 256 µg/mL; effect on cell viability [8]: did not affect the cell viability
C=C(C/C=C(\C)CCC=C(C)C)CCC(C)(C)/C=C/CC/C(C)=C/CO[C@@H](COP(=O)(O)O[C@H]1O[C@H](C(N)=O)[C@@](C)(O)[C@H](OC(N)=O)[C@H]1O[C@@H]1O[C@H](CO[C@@H]2O[C@H](CO)[C@@H](O)[C@H](O)[C@H]2O)[C@@H](O[C@@H]2O[C@H](C)[C@@H](O[C@@H]3O[C@H](C(=O)NC4=C(O)CCC4=O)[C@H](O)[C@H](O)[C@H]3O)[C@H](O)[C@H]2NC(C)=O)[C@H](O)[C@H]1NC(C)=O)C(=O)O [Moenomycin A, reference compound] | 256 µg/mL | Growth in all wells | 64 µg/mL | 128 µg/mL | 4 µg/mL and 8 µg/mL | 8 µg/mL | – | – | – | – | – | – | – | MBC [6]: Growth in all wells; MIC [6]: 256 µg/mL; MBC [7]: 128 µg/mL; MIC [7]: 32 µg/mL; concentration up to which no toxicity was observed [9]: up to 10 mg/mL
CCCCCCCCCCCCCCCCCC(=O)OC(COCC(COC(=O)NCCCN(C)CCCN)OC(=O)NCCCN(C)CCCN)COCC(COC(=O)NCCCN(C)CCCN)OC(=O)NCCCN(C)CCCN (centres unmarked) [Compound 5] | – | – | 64 µg/mL | 64 µg/mL | – | – | 256 | 256 | 32 | 32 | 64 | – | 128 | MIC ([3]; Klebsiella pneumoniae, 24 h, read-out: MIC): 128 µg/mL; MBC ([3]; Klebsiella pneumoniae, read-out: MBC): 128 µg/mL
CC1(C)S[C@@H]2[C@H](NC(=O)[C@H](N)c3ccccc3)C(=O)N2[C@H]1C(=O)O [Ampicillin, reference compound] | Growth in all wells | Growth in all wells | Growth in all wells | Growth in all wells | – | Growth in all wells | – | – | 256 | 128 | 8 | 128 | 8 | –
